Measured values from US9155726B2, “Method of treatment using checkpoint kinase 1 inhibitors” (ARRAY BIOPHARMA INC., priority 2009, dated 2015).
Where two headings read alike, the source gives them in different places.

What was measured:
[1] = Tolerability of CPT11 with Compound 2 started 12, 24 or 48 hours post CPT11 (Example 4); assay type: in vivo, nude mice; conditions: single agents: CPT11 100 mg/kg IP Q10Dx2; Compound 2 25 mg/kg PO BID 3 days per cycle; naive mice
[2] = tested on: subcutaneous HT-29 xenografts; test: TGI/tolerability experiment, CPT11 with simultaneous or 24 hour delayed Compound 1 (Example 3); assay type: in vivo, nude mice; conditions: single agents: CPT11 100 mg/kg IP single dose; Compound 1 50 mg/kg PO BID 3 days
Description: (§1) Female nude mice were inoculated subcutaneously with 5×10^6 HT-29 tumor cells in 1×PBS (100 μL). Twelve days later, mice were randomized into groups of 6 with an average tumor volume in each group of approximately 250 mm^3. […] Tumor size and animal body weight were measured over the course of the study on the days indicated with data points in FIG. 5. Tumor volume was calculated using the formula: volume=(width^2×length)/2.

[3] = tested on: subcutaneous HT-29 xenografts; test: TGI experiment, CPT11 with Compound 5 (Example 12); assay type: in vivo
Description: as §1, with “4×10^6” for “5×10^6”, “7” for “6”, “200” for “250”, “13.” for “5.”, “volume=(width^2×length)/2. No mortalities occurred over the course of this study.” for “volume=(width^2×length)/2.”

[4] = tested on: subcutaneous HT-29 xenografts; conditions: mouse, in vivo, ip, 100 mg/kg
Description: as §1, with “μL). Fourteen” for “μL). Twelve”, “of 8” for “of 6”, “approximately 260” for “approximately 250”, “FIG. 12.” for “FIG. 5.”

Phosphorylation of cdc2 [5] = test: Inhibition of CPT11 induced phosphorylation of cdc2 in HT-29 tumors, immunoblot (Example 6); assay type: in vivo, nude mice; conditions: 3 consecutive days BID versus single dose, 25 mg/kg PO, from 24 hours after CPT11 100 mg/kg
Description: Female nude mice were inoculated subcutaneously with 5×10^6 HT-29 tumor cells in 1×PBS (100 μL). Twenty four days later, mice were randomized into groups of 3 with an average tumor volume in each group of approximately 450 mm^3. […] Compound 2 was given as a single dose, or alternatively for 3 consecutive days on a BID schedule. All tumors from animals dosed with Compound 2 were harvested 2 hours post dose. Phosphorylation of cdc2 was assessed by immunoblot and normalized to total ERK expression. Results are expressed as POC.

[6] = Compound 2 exposure after single dose or 3 days dosing (Example 6); assay type: in vivo, nude mice; conditions: 25 mg/kg PO, from 24 hours after CPT11 100 mg/kg; t-test>0.05
[7] = tested on: subcutaneous HT-29 xenografts; test: TGI experiment, CPT11 with Compound 2 for 1 or 3 days (Example 5); assay type: in vivo; conditions: single agents: CPT11 100 mg/kg IP Q10Dx2; Compound 2 25 mg/kg PO BID
Description: as §1, with “of 8” for “of 6”, “approximately 215” for “approximately 250”, “FIG. 6.” for “FIG. 5.”, “volume=(width^2×length)/2. No mortalities occurred over the course of this study.” for “volume=(width^2×length)/2.”

Phosphorylation of cdc2 [8] = test: Inhibition of CPT11 induced phosphorylation of cdc2 in HT-29 tumors, immunoblot (Example 7); assay type: in vivo, nude mice; conditions: 5, 10 or 25 mg/kg PO BID 3 consecutive days from 24 hours after CPT11 100 mg/kg; HT-29 tumors harvested 96 hours post CPT11
Description: Female nude mice were inoculated subcutaneously with 5×10^6 HT-29 tumor cells in 1×PBS (100 μL). Twenty nine days later, mice were randomized into groups of 3 with an average tumor volume in each group of approximately 500 mm^3. […] Compound 5 was given as a single dose at 25 mg/kg, or alternatively 5, 10, or 25 mg/kg doses were given for 3 consecutive days on BID schedules. […] Phosphorylation of cdc2 was assessed by immunoblot and normalized to total ERK expression. Results are expressed as POC.

[9] = single agents: CPT11 100 mg/kg IP Q10Dx2, Compound 5 PO BID (dose of single-agent group not given)

CCc1c2c(nc3ccc(OC(=O)N4CCC(N5CCCCC5)CC4)cc13)-c1cc3c(c(=O)n1C2)COC(=O)[C@]3(O)CC [CPT11, irinotecan]
% Mortality [1]: 0% | Day of Maximum % Body Weight Loss [1]: 14 days | Maximum % Body Weight Loss [1]: 3.4% | % Mortality [2]: 0% | Day of Maximum % Body Weight Loss ([3]; mouse, in vivo, 100 mg/kg): 18 days | Maximum % Body Weight Loss ([3]; mouse, in vivo, 100 mg/kg): 6.3% | Maximum % Body Weight Loss [4]: 0.08%

N[C@@H]1CCCN(c2c(Br)cnc3[nH]cc(NC(=O)c4cccnc4)c23)C1 [Compound 1, (R)—N-(4-(3-aminopiperidin-1-yl)-5-bromo-1H-pyrrolo[2,3-b]pyridin-3-yl)nicotinamide]
Inhibition of CPT11 induced phospho-cdc2 with extended dosing (Phosphorylation of cdc2 [5]): Superior Inhibition

CC(C)C(=O)Nc1c[nH]c2ncc(Br)c(N3CCC[C@@H](N)C3)c12 [Compound 2, (R)—N-(4-(3-aminopiperidin-1-yl)-5-bromo-1H-pyrrolo[2,3-b]pyridin-3-yl)isobutyramide]
Day of Maximum % Body Weight Loss [1]: 17 days | Maximum % Body Weight Loss [1]: 0.3% | Compound 2 exposure, single dose versus administration for 3 days [6]: not statistically different | Day of Maximum % Body Weight Loss [7]: 3 days | Maximum % Body Weight Loss [7]: 7.2%

N[C@@H]1CCCN(c2c(Br)cnc3[nH]cc(NC(=O)C4CC4)c23)C1 [Compound 5, (R)—N-(4-(3-aminopiperidin-1-yl)-5-bromo-1H-pyrrolo[2,3-b]pyridin-3-yl)cyclopropanecarboxamide]
Inhibition of CPT11 induced phospho-cdc2 with extended dosing (Phosphorylation of cdc2 [8]): Dose-Related Inhibition | Day of Maximum % Body Weight Loss [3, 9]: 18 days | Maximum % Body Weight Loss [3, 9]: 2.5%
